The test system of experiment [1] is HRE-bla ME-180 cells. Nature of the experiment: Reporter gene assay (HRE-bla ME-180 HIF reporter, GeneBLAzer). The class given is cell-based, human. The settings on record: for EC50: 24 hour normoxia. Put shortly:
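A FRET β-lactamase readout of HIF transcription was used. After compound treatment in 0.3% DMSO/media under normoxic conditions, 20 μl of 6× LiveBLAzer-FRET B/G (CCF4-AM) substrate was added. Plates sat 3 hr at room temperature in the dark and were read at 409 Ex/460Em and 409Ex/530Em on a Synergy 2. Inhibition was compared against DMSO vehicle controls, with chetomin as positive control.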
In general terms: A reporter such as luciferase makes a cellular process visible.

The target in experiment [2] is T1, flag-tagged HIF1α (AA 786-826) / His6-tagged p300 (AA 323-423) complex (Homo sapiens, UniProt Q09472).
T1 construct: His6-tagged p300 (AA 323-423); made in house; host or cells: E. coli (pETDuet vector)
Nature of the experiment: HIF1α p300 displacement assay (TR FRET, +CHAPS). The class given is binding. The settings on record: read-out: IC50 (nM) (HIF1α_p300 Displacement + CHAPS). A digest of the protocol:
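In this TR-FRET displacement format, peptides compete HIF1α C-terminal transactivation domain off p300-CH. They were preincubated 1 h at room temperature with 300 nM complex in HEPES pH 7.4/NaCl buffer with 7.5 mM CHAPS and 1 mM DTT. Anti-His-D2 (4 nM) and anti-Flag-K (0.5 μM) followed for 2 h, and a one-site fit of the fluorescence ratio gave IC50.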
(In general: In TR-FRET formats the signal depends on donor and acceptor labels being close together.)

The subject of experiment [3] is HRE-bla ME-180 cells. Nature of the experiment: Cell proliferation assay (viability, MTT, 1% FBS). The class given is cell-based, human. Put shortly:
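Viable cell number was measured with the CellTiter 96 (MTT) kit after compounds were applied for a 16 h normoxic (21% O2) pretreatment, followed by further normoxic or hypoxic (1% O2) culture. Cells: 2×10^4 ME-180 per well, Opti-MEM + 1% FBS, 0.5% DMSO vehicle.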

SMILES strings stand for the structures. Bridge positions count the residues as written; N and C are the ends. Square brackets hold non-standard residues; d marks the D form. Peptide text beside a SMILES is read from it. R8 = C=CCCCCCC[C@@](C)(N)C(=O)O; S5 = C=CCCC[C@](C)(N)C(=O)O; Nle = CCCC[C@H](N)C(=O)O

One may read the EC50 as the concentration giving half of the maximal effect. A word on the IC50: it is the concentration at which inhibition is half-maximal.

Turning to `CCCC[C@H](NC(=O)[C@H](CCC(=O)O)NC(=O)[C@]1(C)CCCC=CCCCCCC[C@@](C)(NC(=O)[C@H](CCC(=O)O)NC(=O)[C@H](CC(=O)O)NC(=O)[C@@H](NC(=O)[C@H](CC(N)=O)NC(=O)[C@@H](NC(=O)[C@]2(C)CCCC=CCCCCCC[C@@](C)(NC(=O)[C@H](CCC(=O)O)NC(=O)CNC(=O)[C@H](CCC(N)=O)NC(=O)[C@H](CC(C)C)NC(=O)[C@H](CC(C)C)NC(C)=O)C(=O)N[C@@H](CC(C)C)C(=O)N[C@@H](CC(C)C)C(=O)N[C@@H](CCCNC(=N)N)C(=O)N[C@@H](C)C(=O)N[C@@H](CC(C)C)C(=O)N[C@@H](C)C(=O)N2)C(C)C)[C@@H](C)CC)C(=O)N[C@@H](C(C)C)C(=O)N[C@@H](CC(C)C)C(=O)N[C@@H](CCCC)C(=O)N[C@@H](CO)C(=O)N[C@@H](CC(C)C)C(=O)N[C@@H](C(C)C)C(=O)N1)C(N)=O` [SP-354] (Ac-LLQGE[R8]LLRALA[S5]VNIDE[R8]VL[Nle]SLV[S5]E[Nle]-NH2; staple 6-13, 19-26), in experiment [1], the “18 h Avg % max inhibition at top conc (HIF Rptr-24 hrs normoxia) (μM)” value (“18 h Avg % max inhibition at top conc” for short) was “+++ (≤25 but <50: +++)” and the EC50 was above 30 µM. For the same compound, in experiment [2], the IC50 lay in the range of 200 to 400 nM. For the same compound, the “Viability 1% FBS AVG (MTT V3-24 hr Normoxia) (μM)” value (from here on “Viability 1% FBS AVG”) in experiment [3] is listed as “++++ (≥30: ++++)”.

In the case of `CCCC[C@H](NC(=O)[C@H](CCC(=O)O)NC(=O)[C@]1(C)CCCC=CCCCCCC[C@@](C)(NC(=O)[C@H](CCC(=O)O)NC(=O)[C@H](C)NC(=O)[C@@H](NC(=O)[C@H](CC(N)=O)NC(=O)[C@@H](NC(=O)[C@]2(C)CCCC=CCCCCCC[C@@](C)(NC(=O)[C@H](CCC(=O)O)NC(=O)CNC(=O)[C@H](CCC(N)=O)NC(=O)[C@H](CC(C)C)NC(=O)[C@H](CC(C)C)NC(C)=O)C(=O)N[C@@H](CC(C)C)C(=O)N[C@@H](CC(C)C)C(=O)N[C@@H](CCCNC(=N)N)C(=O)N[C@@H](C)C(=O)N[C@@H](CC(C)C)C(=O)N[C@@H](CC(=O)O)C(=O)N2)C(C)C)[C@@H](C)CC)C(=O)N[C@@H](C(C)C)C(=O)N[C@@H](CC(C)C)C(=O)N[C@@H](CCCC)C(=O)N[C@@H](CO)C(=O)N[C@@H](CC(C)C)C(=O)N[C@@H](C(C)C)C(=O)N1)C(N)=O` [SP-355] (Ac-LLQGE[R8]LLRALD[S5]VNIAE[R8]VL[Nle]SLV[S5]E[Nle]-NH2; staple 6-13, 19-26), in experiment [1], the “18 h Avg % max inhibition at top conc” value is listed as “++ (≤10 but <25: ++)” and the EC50 was above 30 µM. Moreover, the IC50 in experiment [2] is at most 200 nM. For the same compound, the “Viability 1% FBS AVG” value in experiment [3] is on record as “++++ (≥30: ++++)”.

In the case of `CCCC[C@H](NC(=O)[C@H](CCC(=O)O)NC(=O)[C@]1(C)CCCC=CCCCCCC[C@@](C)(NC(=O)[C@H](CCC(=O)O)NC(=O)[C@H](CC(=O)O)NC(=O)[C@@H](NC(=O)[C@H](CC(N)=O)NC(=O)[C@@H](NC(=O)[C@]2(C)CCCC=CCCCCCC[C@@](C)(NC(=O)[C@H](CCC(=O)O)NC(=O)[C@H](C)NC(=O)[C@H](CCC(N)=O)NC(=O)[C@H](CC(C)C)NC(=O)[C@H](CC(C)C)NC(C)=O)C(=O)N[C@@H](CC(C)C)C(=O)N[C@@H](CC(C)C)C(=O)N[C@@H](CCCNC(=N)N)C(=O)N[C@@H](C)C(=O)N[C@@H](CC(C)C)C(=O)N[C@@H](CC(=O)O)C(=O)N2)C(C)C)[C@@H](C)CC)C(=O)N[C@@H](C(C)C)C(=O)N[C@@H](CC(C)C)C(=O)N[C@@H](CCCC)C(=O)N[C@@H](CO)C(=O)N[C@@H](CC(C)C)C(=O)N[C@@H](C(C)C)C(=O)N1)C(N)=O` [SP-357] (Ac-LLQAE[R8]LLRALD[S5]VNIDE[R8]VL[Nle]SLV[S5]E[Nle]-NH2; staple 6-13, 19-26), in experiment [1], the “18 h Avg % max inhibition at top conc” value is “++ (≤10 but <25: ++)” and the EC50 was above 30 µM. In addition, in experiment [2], the IC50 is at most 200 nM. Besides, the “Viability 1% FBS AVG” value in experiment [3] was “++++ (≥30: ++++)”.

On to `CCCC[C@H](NC(=O)[C@H](CCC(=O)O)NC(=O)[C@]1(C)CCCC=CCCCCCC[C@@](C)(NC(=O)[C@H](CCC(=O)O)NC(=O)[C@H](CC(=O)O)NC(=O)[C@@H](NC(=O)[C@H](CC(N)=O)NC(=O)[C@@H](NC(=O)[C@]2(C)CCCC=CCCCCCC[C@@](C)(NC(=O)[C@H](CCC(=O)O)NC(C)=O)C(=O)N[C@@H](CC(C)C)C(=O)N[C@@H](CC(C)C)C(=O)N[C@@H](CCCNC(=N)N)C(=O)N[C@@H](C)C(=O)N[C@@H](CC(C)C)C(=O)N[C@@H](CC(=O)O)C(=O)N2)C(C)C)[C@@H](C)CC)C(=O)N[C@@H](C(C)C)C(=O)N[C@@H](CC(C)C)C(=O)N[C@@H](CCCC)C(=O)N[C@@H](CO)C(=O)N[C@@H](CC(C)C)C(=O)N[C@@H](C(C)C)C(=O)N1)C(N)=O` [SP-358] (Ac-E[R8]LLRALD[S5]VNIDE[R8]VL[Nle]SLV[S5]E[Nle]-NH2; staple 2-9, 15-22), for which, in experiment [1], the “18 h Avg % max inhibition at top conc” value is reported as “+ (<10: +)” and the EC50 was above 30 µM. In experiment [2], the IC50 lay in the range of 200 to 400 nM. Also, the “Viability 1% FBS AVG” value in experiment [3] is recorded as “++++ (≥30: ++++)”.

Turning to `CCCC[C@H](NC(=O)[C@H](CCC(=O)O)NC(=O)[C@]1(C)CCCC=CCCCCCC[C@@](C)(NC(=O)[C@H](CCC(=O)O)NC(=O)[C@H](C)NC(=O)[C@H](C)NC(=O)[C@H](C)NC(=O)[C@H](C)NC(=O)[C@H](CCC(N)=O)NC(=O)[C@]2(C)CCCC=CCCC[C@](C)(NC(=O)[C@H](CC(C)C)NC(=O)[C@H](CCC(=O)O)NC(=O)[C@H](CCC(=O)O)NC(=O)CNC(=O)[C@H](CCC(N)=O)NC(=O)[C@H](CC(C)C)NC(=O)[C@H](CC(C)C)NC(C)=O)C(=O)N[C@@H](CCCNC(=N)N)C(=O)N[C@@H](C)C(=O)N[C@@H](CC(C)C)C(=O)N2)C(=O)N[C@@H](C(C)C)C(=O)N[C@@H](CC(C)C)C(=O)N[C@@H](CCCC)C(=O)N[C@@H](CO)C(=O)N[C@@H](CC(C)C)C(=O)N[C@@H](C(C)C)C(=O)N1)C(N)=O` [SP-359] (Ac-LLQGEEL[S5]RAL[S5]QAAAAE[R8]VL[Nle]SLV[S5]E[Nle]-NH2; staple 8-12, 19-26), in experiment [1], the “18 h Avg % max inhibition at top conc” value is “+++ (≤25 but <50: +++)” and the EC50 is above 30 µM. In addition, the IC50 in experiment [2] was in the range of 200 to 400 nM. Also, the “Viability 1% FBS AVG” value in experiment [3] is on record as “++++ (≥30: ++++)”.

As to `CCCC[C@H](NC(=O)[C@H](CCC(=O)O)NC(=O)[C@]1(C)CCCC=CCCCCCC[C@@](C)(NC(=O)[C@H](CCC(=O)O)NC(=O)[C@H](CC(=O)O)NC(=O)[C@@H](NC(=O)[C@H](CC(N)=O)NC(=O)[C@@H](NC(=O)[C@H](CCC(N)=O)NC(=O)[C@]2(C)CCCC=CCCC[C@](C)(NC(=O)[C@H](CC(C)C)NC(=O)[C@H](CCC(=O)O)NC(=O)[C@H](C)NC(=O)CNC(=O)[C@H](CCC(N)=O)NC(=O)[C@H](CC(C)C)NC(=O)[C@H](CC(C)C)NC(C)=O)C(=O)N[C@@H](CCCNC(=N)N)C(=O)N[C@@H](C)C(=O)N[C@@H](CC(C)C)C(=O)N2)C(C)C)[C@@H](C)CC)C(=O)N[C@@H](C(C)C)C(=O)N[C@@H](CC(C)C)C(=O)N[C@@H](CCCC)C(=O)N[C@@H](CO)C(=O)N[C@@H](CC(C)C)C(=O)N[C@@H](C(C)C)C(=O)N1)C(N)=O` [SP-360] (Ac-LLQGAEL[S5]RAL[S5]QVNIDE[R8]VL[Nle]SLV[S5]E[Nle]-NH2; staple 8-12, 19-26), in experiment [1], the “18 h Avg % max inhibition at top conc” value is reported as “++ (≤10 but <25: ++)” and the EC50 is above 30 µM. For the same compound, the IC50 in experiment [2] lay in the range of 200 to 400 nM. In experiment [3], the “Viability 1% FBS AVG” value is reported as “++++ (≥30: ++++)”.

Regarding `CCCC[C@H](NC(=O)[C@H](CCC(=O)O)NC(=O)[C@]1(C)CCCC=CCCCCCC[C@@](C)(NC(=O)[C@H](CCC(=O)O)NC(=O)[C@H](CC(=O)O)NC(=O)[C@@H](NC(=O)[C@H](CC(N)=O)NC(=O)[C@@H](NC(=O)[C@H](CCC(N)=O)NC(=O)[C@]2(C)CCCC=CCCC[C@](C)(NC(=O)[C@H](CC(C)C)NC(=O)[C@H](C)NC(=O)[C@H](CCC(=O)O)NC(=O)CNC(=O)[C@H](CCC(N)=O)NC(=O)[C@H](CC(C)C)NC(=O)[C@H](CC(C)C)NC(C)=O)C(=O)N[C@@H](CCCNC(=N)N)C(=O)N[C@@H](C)C(=O)N[C@@H](CC(C)C)C(=O)N2)C(C)C)[C@@H](C)CC)C(=O)N[C@@H](C(C)C)C(=O)N[C@@H](CC(C)C)C(=O)N[C@@H](CCCC)C(=O)N[C@@H](CO)C(=O)N[C@@H](CC(C)C)C(=O)N[C@@H](C(C)C)C(=O)N1)C(N)=O` [SP-361] (Ac-LLQGEAL[S5]RAL[S5]QVNIDE[R8]VL[Nle]SLV[S5]E[Nle]-NH2; staple 8-12, 19-26), in experiment [1], the “18 h Avg % max inhibition at top conc” value is reported as “++ (≤10 but <25: ++)” and the EC50 is above 30 µM. For the same compound, the IC50 in experiment [2] is above 700 nM. The “Viability 1% FBS AVG” value in experiment [3] is on record as “++++ (≥30: ++++)”.

The values are drawn from patent publication US20190225650A1, “PEPTIDOMIMETIC MACROCYCLES AND USE THEREOF IN REGULATING HIF1ALPHA” (AILERON THERAPEUTICS, INC., priority 2013, published 2019).
